Data: the NIST ThermoML archive (doi:10.1021/acs.jced.6b00202)

Conditions: Liquid

COC(C)(C)C [2-methoxy-2-methylpropane]
Brillouin light scattering
Conditions	speed of sound [m/s]
303.11 K, 7000 kPa	1078.5
303.12 K, 10000 kPa	1093.4
303.13 K, 1000 kPa	1023.2
303.15 K, 2500 kPa	1035.3
303.15 K, 8500 kPa	1086.9
303.2 K, 4000 kPa	1045.4
303.2 K, 5500 kPa	1058.1
308.06 K, 2500 kPa	1018.4
308.11 K, 10000 kPa	1080
308.12 K, 4000 kPa	1025.3
308.13 K, 5500 kPa	1037.2
308.13 K, 8500 kPa	1064.6
308.23 K, 1000 kPa	1003.3
308.24 K, 7000 kPa	1052.5
313.09 K, 1000 kPa	975
313.1 K, 2500 kPa	990.3
313.13 K, 7000 kPa	1034.7
313.15 K, 4000 kPa	1007
313.17 K, 10000 kPa	1051.6
313.2 K, 5500 kPa	1018.3
313.24 K, 8500 kPa	1049
318.06 K, 8500 kPa	1020.1
318.07 K, 1000 kPa	959.3
318.18 K, 7000 kPa	1012.5
318.22 K, 4000 kPa	985.3
318.23 K, 2500 kPa	971.4
318.24 K, 5500 kPa	996.7
318.25 K, 10000 kPa	1040
323.07 K, 10000 kPa	1016.8
323.12 K, 8500 kPa	1006.1
323.14 K, 7000 kPa	987.9
323.15 K, 1000 kPa	932.5
323.18 K, 2500 kPa	947.7
323.21 K, 5500 kPa	982.2
323.25 K, 4000 kPa	964.9
328.06 K, 7000 kPa	971.9
328.08 K, 1000 kPa	917
328.11 K, 2500 kPa	926.2
328.13 K, 8500 kPa	984.6
328.14 K, 5500 kPa	963.3
328.16 K, 4000 kPa	942.5
328.19 K, 10000 kPa	991.7
333.08 K, 1000 kPa	893.5
333.08 K, 2500 kPa	904.6
333.12 K, 4000 kPa	920.6
333.18 K, 10000 kPa	978.4
333.2 K, 5500 kPa	941.5
333.21 K, 7000 kPa	949.1
333.22 K, 8500 kPa	967.6
338.09 K, 1000 kPa	867.8
338.11 K, 7000 kPa	931.3
338.11 K, 8500 kPa	941
338.16 K, 5500 kPa	922.2
338.17 K, 10000 kPa	954.4
338.22 K, 4000 kPa	898.7
338.23 K, 2500 kPa	884.4
343.15 K, 7000 kPa	911.8
343.18 K, 8500 kPa	926.4
343.19 K, 4000 kPa	883.2
343.19 K, 5500 kPa	892.8
343.2 K, 1000 kPa	845.4
343.22 K, 2500 kPa	868.6

Brillouin Light Scattering
Conditions	speed of sound [m/s]
303.19 K	1024.7
308.16 K	988.6
313.08 K	960.4
318.19 K	942.7
323.07 K	912.4
328.21 K	904.7
333.13 K	876.8
338.07 K	855.1
343.12 K	826.3
